Earlier results on one substance are cited in patent US4127535A, “Novel dipeptides, intermediates therefor, and compositions and methods employing said dipeptides” (priority 1977, dated 1978).

The conditions of series [1]: injected directly into the brain of the rat; Belluzzi et al.
For series [2] the following is noted: literature.
The subject of series [3] is partially purified brain opiate receptor sites. Particulars: literature, Bradbury et al.

Take “H-Tyr-Gly-Gly-Phe-Met-OH [methionine enkephalin]”: the analgesic activity entry in series [1] is reported as “weak analgesic agent of short duration”. For the same substance, in series [2], the “activity in bioassays for opiate activity” value was “very active”. Further, in series [3], the “binding to partially purified brain opiate receptor sites” value is recorded as “binds stereo-specifically”.
